# Results as given in patent publication US10005792B2, “Aminoindane-, aminotetrahydronaphthalene- and aminobenzocyclobutane-derived PRMT5-inhibitors” (CTXT PTY LTD, priority 2014, dated 2018).
# Counter-ions that a name gives are not always drawn.
# Target: Full-length PRMT5 enzyme co-expressed with MEP50 (Homo sapiens (Human), UniProt O14744)
# Test: Revised PRMT5 Biochemical Assay
# Conditions: 1 μM histone H4 derived peptide substrate, 1 μM S-Adenosyl methionine, 4 hours at 37 degree Celsius, Transcreener EPIGEN fluorescence polarisation
# Method: Compounds of the invention may be tested for in vitro activity in the following assay: A histone H4 derived peptide is used as substrate (amino acid sequence: […]NH2). Full-length PRMT5 enzyme (NCBI Reference sequence NP-006100.2) was co-expressed with Hiss-MEP50 in insect cells and purified via Nickel immobilized metal affinity and gel filtration chromatography (“the enzyme”).
# The 6 μL reactions are run in Greiner brand black 384-well low volume assay plates. All reactions contained assay buffer (phosphate buffered saline, 0.01% (v/v) Tween-20, 0.01% (w/v) albumin from chicken egg white, 1 mM Dithiothreitol, 1 μM peptide substrate, 1 μM S-Adenosyl methionine, and 15 ng/reaction enzyme, with the enzyme being omitted from negative control reactions. Compounds were added in a volume of 100 nL from dilution series prepared in DMSO, positive and negative control reactions receiving the same volume DMSO without compound. The plates were sealed with adhesive seals and incubated for 4 hours at 37 degree Celsius. Reaction progress was measured using the Transcreener™ EPIGEN methyltransferase assay (BellBrook Labs, Madison, Wis.) as recommended by the manufacturer. To each reaction 2 μL detection mix were added, containing coupling enzymes, fluorescence polarisation tracer, and AMP antibody. Plates were incubated for 90 minutes before being read on a PerkinElmer EnVision™ plate reader in fluorescence polarisation mode. IC50 values were obtained from the raw readings by calculating percent inhibition (% I) for each reaction relative to controls on the same plate (% I=(I−CN)/(CP−CN) where CN/CP are the averages of the negative/positive reactions, respectively), then fitting the % I data vs. compound concentration [I] to % I=([…]) where A is the lower asymptote, B is the upper asymptote, C is the IC50 value, and D is the slope.
# Sequence of Full-length PRMT5 enzyme co-expressed with MEP50 (O14744 whole entry): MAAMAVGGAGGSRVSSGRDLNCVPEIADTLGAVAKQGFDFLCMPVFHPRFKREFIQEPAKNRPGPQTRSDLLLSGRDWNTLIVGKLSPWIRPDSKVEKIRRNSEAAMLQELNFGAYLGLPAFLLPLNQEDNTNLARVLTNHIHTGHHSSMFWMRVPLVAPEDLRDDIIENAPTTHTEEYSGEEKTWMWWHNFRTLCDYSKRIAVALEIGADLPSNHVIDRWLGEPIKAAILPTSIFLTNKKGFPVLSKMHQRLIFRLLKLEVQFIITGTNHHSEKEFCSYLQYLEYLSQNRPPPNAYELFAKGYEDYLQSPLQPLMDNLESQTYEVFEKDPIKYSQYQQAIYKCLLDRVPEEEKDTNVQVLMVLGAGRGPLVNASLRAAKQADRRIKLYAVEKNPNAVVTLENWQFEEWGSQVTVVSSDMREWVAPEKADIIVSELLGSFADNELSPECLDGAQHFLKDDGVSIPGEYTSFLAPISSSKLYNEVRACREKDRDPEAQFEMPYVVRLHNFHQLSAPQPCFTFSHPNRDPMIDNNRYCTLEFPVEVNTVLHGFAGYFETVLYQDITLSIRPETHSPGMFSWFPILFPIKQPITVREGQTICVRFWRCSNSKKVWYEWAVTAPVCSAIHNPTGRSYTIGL
# Sequence of Full-length PRMT5 enzyme co-expressed with MEP50 (Q9BQA1 whole entry partner): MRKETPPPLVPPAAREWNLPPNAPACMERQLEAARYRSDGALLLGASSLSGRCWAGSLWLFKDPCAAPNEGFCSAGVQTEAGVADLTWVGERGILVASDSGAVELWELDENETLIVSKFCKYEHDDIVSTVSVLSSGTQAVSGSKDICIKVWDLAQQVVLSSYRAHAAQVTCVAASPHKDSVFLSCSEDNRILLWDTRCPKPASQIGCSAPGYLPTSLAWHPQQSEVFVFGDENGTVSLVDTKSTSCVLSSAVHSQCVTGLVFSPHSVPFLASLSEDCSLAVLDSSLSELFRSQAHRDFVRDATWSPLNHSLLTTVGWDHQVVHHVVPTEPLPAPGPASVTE
row,IC50 [µM],Compound
1,12.8,"O=C(NCC(O)CNC1Cc2ccccc2C1)c1cc(-c2ccccn2)[nH]n1 (stereo not shown) [Compound 45, N-(3-((2,3-dihydro-1H-inden-2-yl)amino)-2-hydroxypropyl)-5-(pyridin-2-yl)-1H-pyrazole-3-carboxamide]"
2,13.3,"O=C(NC[C@@H](O)CNC1Cc2ccccc2C1)c1cccc2[nH]cnc12 [Compound 120, (S)-N-(3-((2,3-dihydro-1H-inden-2-yl)amino)-2-hydroxypropyl)-1H-benzo[d]imidazole-4-carboxamide]"
3,0.237,"CC[C@@H]1COCCN1C(=O)c1ccc(C(=O)NC[C@@H](O)CNC2Cc3ccccc3C2)cc1 [Compound 71, N-((S)-3-((2,3-dihydro-1H-inden-2-yl)amino)-2-hydroxypropyl)-4-((R)-3-ethylmorpholine-4-carbonyl)benzamide]"
4,4.32,"O=C(NCC(O)CNC1Cc2ccccc2C1)c1ccccc1OCC(F)(F)F (racemic) [Compound 97, N-(3-((2,3-dihydro-1H-inden-2-yl)amino)-2-hydroxypropyl)-2-(2,2,2-trifluoroethoxy)benzamide]"
5,7.29,"O=C(NCC(O)CNC1Cc2ccccc2C1)c1ccc(N2CCCCC2=O)cc1 (stereo not shown) [Compound 63, N-(3-((2,3-Dihydro-1H-inden-2-yl)amino)-2-hydroxypropyl)-4-(2-oxopiperidin-1-yl)benzamide]"
6,29.7,"O=C(NC[C@@H](O)CNC1Cc2ccccc2C1)c1cccc2cn[nH]c12 [Compound 132, (S)-N-(3-((2,3-dihydro-1H-inden-2-yl)amino)-2-hydroxypropyl)-1H-indazole-7-carboxamide]"
7,3.15,"O=C(NC[C@@H](O)CNC1Cc2ccccc2C1)c1ccc(CC(=O)N2CCOCC2)cc1 [Compound 90, (S)-N-(3-((2,3-dihydro-1H-inden-2-yl)amino)-2-hydroxypropyl)-4-(2-morpholino-2-oxoethyl)benzamide]"
8,47,"O=C(NC[C@@H](O)CNC1Cc2ccccc2C1)c1ccccc1C(F)F [Compound 137, (S)-2-(difluoromethyl)-N-(3-((2,3-dihydro-1H-inden-2-yl)amino)-2-hydroxypropyl)benzamide]"
9,103,"O=C(NC[C@@H](O)CNC1Cc2ccccc2C1)c1ccccc1C(F)(F)F [Compound 118, (S)-N-(3-((2,3-dihydro-1H-inden-2-yl)amino)-2-hydroxypropyl)-2-(trifluoromethyl)benzamide]"
10,0.682,"COC1CCN(C(=O)c2ccc(C(=O)NC[C@@H](O)CNC3Cc4ccccc4C3)cc2)CC1 [Compound 86, (S)-N-(3-((2,3-dihydro-1H-inden-2-yl)amino)-2-hydroxypropyl)-4-(4-methoxypiperidine-1-carbonyl)benzamide]"
11,0.931,"CC(=O)N1CCc2cc(C(=O)NCC(O)CNC3Cc4ccccc4C3)ccc2C1 (racemic) [Compound 95, 2-acetyl-N-(3-((2,3-dihydro-1H-inden-2-yl)amino)-2-hydroxypropyl)-1,2,3,4-tetrahydroisoquinoline-6-carboxamide]"
12,0.229,"O=C(NC[C@@H](O)CNC1Cc2ccccc2C1)c1ccc(C(=O)N2CCC3(CCO3)CC2)cc1 [Compound 88, (S)-N-(3-((2,3-dihydro-1H-inden-2-yl)amino)-2-hydroxypropyl)-4-(1-oxa-7-azaspiro[3.5]nonane-7-carbonyl)benzamide]"
13,0.276,"CCOc1cc(-c2nnc(C)o2)ccc1C(=O)NC[C@@H](O)CNC1Cc2ccccc2C1 [Compound 116, (S)-N-(3-((2,3-dihydro-1H-inden-2-yl)amino)-2-hydroxypropyl)-2-ethoxy-4-(5-methyl-1,3,4-oxadiazol-2-yl)benzamide]"
14,5.58,"O=C(NC[C@@H](O)CNC1Cc2ccccc2C1)c1ccc(CC(=O)N2CCCCC2)nc1 [Compound 78, (S)-N-(3-((2,3-dihydro-1H-inden-2-yl)amino)-2-hydroxypropyl)-6-(2-oxo-2-(piperidin-1-yl)ethyl)nicotinamide]"
15,0.457,"C[C@@H]1COC[C@@H](C)N1C(=O)c1ccc(C(=O)NCC(O)CNC2Cc3ccccc3C2)cc1 (mixture of isomers) [Compound 101, N-(3-((2,3-dihydro-1H-inden-2-yl)amino)-2-hydroxypropyl)-4-((3R,5R)-3,5-dimethylmorpholine-4-carbonyl)benzamide]"
16,0.771,"CC(=O)N1CC2CCC(C1)C2Nc1cccc(C(=O)NC[C@@H](O)CNC2Cc3ccccc3C2)c1 (stereo partly drawn) [Compound 139, 3-((3-Acetyl-3-azabicyclo[3.2.1]octan-8-yl)amino)-N—((S)-3-((2,3-dihydro-1H-inden-2-yl)amino)-2-hydroxypropyl)benzamide]"
17,4.78,"O=C(NCC(O)CNC1Cc2ccccc2C1)c1ccnc(N2CCCC2)c1 (stereo not shown) [Compound 48, N-(3-((2,3-dihydro-1H-inden-2-yl)amino)-2-hydroxypropyl)-2-(pyrrolidin-1-yl)isonicotinamide]"
18,0.63,"O=C(NC[C@@H](O)CNC1Cc2ccccc2C1)c1ccc(C(=O)N2CCC(O)CC2)cc1 [Compound 60, (S)-N-(3-((2,3-dihydro-1H-inden-2-yl)amino)-2-hydroxypropyl)-4-(4-hydroxypiperidine-1-carbonyl)benzamide]"
19,0.733,"CC(=O)N1CCc2ccc(C(=O)NCC(O)CNC3Cc4ccccc4C3)cc2C1 (racemic) [Compound 96, 2-acetyl-N-(3-((2,3-dihydro-1H-inden-2-yl)amino)-2-hydroxypropyl)-1,2,3,4-tetrahydroisoquinoline-7-carboxamide]"
20,52.2,"NC(=O)C(CNC(=O)c1ccc(C(=O)N2CCOCC2)cc1)CNC1Cc2ccccc2C1 (stereo not shown) [Compound 107, N-(3-Amino-2-(((2,3-dihydro-1H-inden-2-yl)amino)methyl)-3-oxopropyl)-4-(morpholine-4-carbonyl)benzamide]"
21,4.68,"CS(=O)(=O)Nc1cccc(C(=O)NC[C@@H](O)CNC2Cc3ccccc3C2)c1 [Compound 140, (S)—N-(3-((2,3-Dihydro-1H-inden-2-yl)amino)-2-hydroxypropyl)-3-(methylsulfonamido) benzamide]"
22,0.487,"CC(=O)N1CCC(Nc2cc(C(=O)NCC(O)CNC3Cc4ccccc4C3)ncn2)CC1 (stereo not shown) [Compound 59, 6-((1-Acetylpiperidin-4-yl)amino)-N-(3-((2,3-dihydro-1H-inden-2-yl)amino)-2-hydroxypropyl)pyrimidine-4-carboxamide 2,2,2-trifluoroacetic acid salt]"
23,9.41,"CN(C[C@H](O)CNC(=O)c1ccc(C(=O)N2CCOCC2)cc1)C1Cc2ccccc2C1 [Compound 112, (R)—N-(3-((2,3-Dihydro-1H-inden-2-yl)(methyl)amino)-2-hydroxypropyl)-4-(morpholine-4-carbonyl)benzamide]"

row,Compound,IC50 [µM]
1,"CS(=O)(=O)N1CC(Nc2cc(C(=O)NC[C@@H](O)CNC3Cc4ccccc4C3)ccn2)C1 [Compound 109, (S)—N-(3-((2,3-Dihydro-1H-inden-2-yl)amino)-2-hydroxypropyl)-2-((1-(methylsulfonyl)azetidin-3-yl)amino)isonicotinamide bis 2,2,2-trifluoroacetic acid salt]",11.1
2,"CCOc1cc(C(=O)N2C3CCC2COC3)ncc1C(=O)NC[C@@H](O)CNC1Cc2ccccc2C1 [Compound 126, 6-(3-oxa-8-azabicyclo[3.2.1]octane-8-carbonyl)-N-((S)-3-((2,3-dihydro-1H-inden-2-yl(amino-2-hydroxypropyl)-4-ethoxynicotinamidedihydrochloride]",0.226
